Laboratory results: paper PMC7224190, “Pharmacological inhibition of PRMT7 links arginine monomethylation to the cellular stress response” (Nature Communications, 2020)

What was measured:
Experiment in all cases: biochemical
Parameters in all cases: radiometric methyltransferase selectivity assay with tritiated SAM, per cent activity
Conditions in all cases: read-out: % of control remaining
DNMT1 = DNMT1 (Homo sapiens, UniProt P26358)
How it was run: (§1)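 Radiometric methyltransferase assays with ³H-SAM and substrate near apparent Km, compound tested at 1 and 10 μM. Methyl incorporation into biotinylated substrate read by scintillation proximity after guanidine quench; no-compound = 100%, no-enzyme = 0% activity.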

PRMT8 = PRMT8 (Homo sapiens, UniProt Q9NR22)
How it was run: as §1

SMYD2 = SMYD2 (Homo sapiens, UniProt Q9NRG4)
How it was run: as §1

PRMT5-MEP50 = PRMT5-MEP50 (Homo sapiens, UniProt O14744)
How it was run: as §1

DNMT3B/3L = DNMT3B/3L (Homo sapiens, UniProt Q9UBC3)
MLL3 = target: T1, MLL3 (Homo sapiens, UniProt Q8NEZ4)
T1 construct: gene KMT2C
How it was run: as §1

DOT1L = DOT1L (Homo sapiens, UniProt Q8TEK3)
How it was run: as §1

SUV39H1 = target: T2, SUV39H1 (Homo sapiens, UniProt O43463)
T2 sequence (O43463 1-412): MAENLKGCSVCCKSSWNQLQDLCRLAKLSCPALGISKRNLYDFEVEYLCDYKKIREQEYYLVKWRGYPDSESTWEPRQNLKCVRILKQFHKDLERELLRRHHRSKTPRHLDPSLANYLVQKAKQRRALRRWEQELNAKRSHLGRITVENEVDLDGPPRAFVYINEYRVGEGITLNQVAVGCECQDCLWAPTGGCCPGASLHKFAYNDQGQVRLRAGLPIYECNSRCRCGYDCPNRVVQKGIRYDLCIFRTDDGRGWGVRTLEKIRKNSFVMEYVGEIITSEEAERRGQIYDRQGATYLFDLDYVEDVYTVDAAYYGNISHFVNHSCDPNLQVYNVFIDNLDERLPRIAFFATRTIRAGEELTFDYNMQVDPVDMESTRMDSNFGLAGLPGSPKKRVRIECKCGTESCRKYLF
How it was run: as §1

PRC2-EZH1 = PRC2-EZH1 (Homo sapiens, UniProt Q92800)
How it was run: as §1

PRDM9 = PRDM9 (Homo sapiens, UniProt Q9NQV7)
How it was run: as §1

METTL3-14 = METTL3-14 (Homo sapiens, UniProt Q86U44)
How it was run: as §1

DNMT3A/3L = DNMT3A/3L (Homo sapiens, UniProt Q9Y6K1)
SUV39H2 = SUV39H2 (Homo sapiens, UniProt Q9H5I1)
How it was run: as §1

SUV420H2 = target: T3, SUV420H2 (Homo sapiens, UniProt Q86Y97)
T3 construct: gene KMT5C
How it was run: as §1

METTL3-14, sequence (Q86U44 whole entry): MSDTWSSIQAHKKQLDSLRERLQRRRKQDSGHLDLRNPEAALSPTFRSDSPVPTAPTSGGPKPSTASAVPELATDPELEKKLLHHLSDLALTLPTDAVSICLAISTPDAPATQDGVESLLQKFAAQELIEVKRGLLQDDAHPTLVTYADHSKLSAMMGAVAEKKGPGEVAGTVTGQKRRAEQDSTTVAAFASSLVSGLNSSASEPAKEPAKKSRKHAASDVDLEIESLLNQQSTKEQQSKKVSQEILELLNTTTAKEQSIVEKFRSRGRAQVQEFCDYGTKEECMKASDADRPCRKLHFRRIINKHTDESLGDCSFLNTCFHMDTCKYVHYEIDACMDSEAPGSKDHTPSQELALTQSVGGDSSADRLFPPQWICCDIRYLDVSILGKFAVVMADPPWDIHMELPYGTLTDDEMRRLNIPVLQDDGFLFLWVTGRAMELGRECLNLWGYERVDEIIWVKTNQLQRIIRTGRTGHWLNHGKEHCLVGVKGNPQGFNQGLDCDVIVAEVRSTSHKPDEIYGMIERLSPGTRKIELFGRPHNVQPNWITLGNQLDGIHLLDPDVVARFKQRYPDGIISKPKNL
METTL3-14, sequence (Q9HCE5 whole entry partner): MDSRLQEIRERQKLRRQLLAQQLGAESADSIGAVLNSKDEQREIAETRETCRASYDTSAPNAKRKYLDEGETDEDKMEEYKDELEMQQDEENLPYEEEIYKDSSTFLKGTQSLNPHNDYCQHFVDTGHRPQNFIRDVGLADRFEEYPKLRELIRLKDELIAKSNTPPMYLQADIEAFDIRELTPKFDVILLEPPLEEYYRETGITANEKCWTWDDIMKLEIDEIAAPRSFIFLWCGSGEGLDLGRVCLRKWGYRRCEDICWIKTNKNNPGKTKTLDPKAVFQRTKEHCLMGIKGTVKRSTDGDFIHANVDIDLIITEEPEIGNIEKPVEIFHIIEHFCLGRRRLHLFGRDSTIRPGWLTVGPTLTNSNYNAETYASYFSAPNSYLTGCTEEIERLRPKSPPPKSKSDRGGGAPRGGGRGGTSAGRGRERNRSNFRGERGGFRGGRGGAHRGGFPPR
SUV39H2, sequence (Q9H5I1 whole entry): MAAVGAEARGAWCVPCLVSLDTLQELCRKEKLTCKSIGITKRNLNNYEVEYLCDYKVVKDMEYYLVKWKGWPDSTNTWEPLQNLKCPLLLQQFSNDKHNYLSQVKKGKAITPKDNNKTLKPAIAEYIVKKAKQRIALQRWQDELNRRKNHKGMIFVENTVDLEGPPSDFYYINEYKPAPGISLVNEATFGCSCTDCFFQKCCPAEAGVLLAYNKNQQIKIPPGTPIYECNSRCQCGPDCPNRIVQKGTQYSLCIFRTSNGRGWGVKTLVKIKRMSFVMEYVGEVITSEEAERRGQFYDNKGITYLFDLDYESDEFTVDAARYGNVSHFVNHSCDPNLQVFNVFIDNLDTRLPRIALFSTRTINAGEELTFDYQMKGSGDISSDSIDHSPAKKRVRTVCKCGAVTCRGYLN
PRMT8, sequence (Q9NR22 whole entry): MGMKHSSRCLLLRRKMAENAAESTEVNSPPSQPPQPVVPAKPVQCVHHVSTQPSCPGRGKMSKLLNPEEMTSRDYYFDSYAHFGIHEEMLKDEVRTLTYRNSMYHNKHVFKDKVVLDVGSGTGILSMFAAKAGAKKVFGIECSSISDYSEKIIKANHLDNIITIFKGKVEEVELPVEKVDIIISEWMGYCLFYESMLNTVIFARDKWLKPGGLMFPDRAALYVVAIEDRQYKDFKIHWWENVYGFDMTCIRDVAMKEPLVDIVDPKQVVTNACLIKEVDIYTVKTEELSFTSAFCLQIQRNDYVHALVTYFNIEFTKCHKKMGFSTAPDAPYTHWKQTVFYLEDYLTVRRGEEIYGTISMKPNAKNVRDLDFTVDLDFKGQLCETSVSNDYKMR
PRMT5-MEP50, sequence (O14744 whole entry): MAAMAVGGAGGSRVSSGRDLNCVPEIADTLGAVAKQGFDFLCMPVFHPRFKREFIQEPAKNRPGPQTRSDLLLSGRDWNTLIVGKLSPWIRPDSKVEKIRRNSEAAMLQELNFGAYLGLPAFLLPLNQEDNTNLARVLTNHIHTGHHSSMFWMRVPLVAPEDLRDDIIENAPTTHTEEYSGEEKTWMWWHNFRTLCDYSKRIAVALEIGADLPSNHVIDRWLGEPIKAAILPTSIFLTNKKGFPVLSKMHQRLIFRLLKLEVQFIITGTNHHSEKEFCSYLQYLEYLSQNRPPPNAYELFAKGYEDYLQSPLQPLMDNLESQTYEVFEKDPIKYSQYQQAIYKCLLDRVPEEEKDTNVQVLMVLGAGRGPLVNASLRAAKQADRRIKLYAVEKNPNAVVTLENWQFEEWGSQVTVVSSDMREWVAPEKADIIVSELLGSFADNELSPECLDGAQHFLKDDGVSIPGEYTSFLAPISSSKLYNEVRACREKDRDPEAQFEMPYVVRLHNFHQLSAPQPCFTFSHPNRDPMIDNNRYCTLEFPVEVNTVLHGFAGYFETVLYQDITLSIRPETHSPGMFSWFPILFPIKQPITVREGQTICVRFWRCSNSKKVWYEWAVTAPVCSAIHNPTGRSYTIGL
PRMT5-MEP50, sequence (Q9BQA1 whole entry partner): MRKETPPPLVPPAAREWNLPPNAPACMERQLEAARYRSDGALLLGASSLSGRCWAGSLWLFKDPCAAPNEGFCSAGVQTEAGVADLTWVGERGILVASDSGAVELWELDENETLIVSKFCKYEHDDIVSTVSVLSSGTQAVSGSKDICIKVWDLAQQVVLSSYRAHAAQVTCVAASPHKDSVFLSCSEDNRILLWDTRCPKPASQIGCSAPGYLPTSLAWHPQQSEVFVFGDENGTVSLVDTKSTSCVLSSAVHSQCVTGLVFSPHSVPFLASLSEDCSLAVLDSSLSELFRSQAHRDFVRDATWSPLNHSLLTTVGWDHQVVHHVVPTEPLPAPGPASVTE
DNMT1, sequence (P26358 whole entry): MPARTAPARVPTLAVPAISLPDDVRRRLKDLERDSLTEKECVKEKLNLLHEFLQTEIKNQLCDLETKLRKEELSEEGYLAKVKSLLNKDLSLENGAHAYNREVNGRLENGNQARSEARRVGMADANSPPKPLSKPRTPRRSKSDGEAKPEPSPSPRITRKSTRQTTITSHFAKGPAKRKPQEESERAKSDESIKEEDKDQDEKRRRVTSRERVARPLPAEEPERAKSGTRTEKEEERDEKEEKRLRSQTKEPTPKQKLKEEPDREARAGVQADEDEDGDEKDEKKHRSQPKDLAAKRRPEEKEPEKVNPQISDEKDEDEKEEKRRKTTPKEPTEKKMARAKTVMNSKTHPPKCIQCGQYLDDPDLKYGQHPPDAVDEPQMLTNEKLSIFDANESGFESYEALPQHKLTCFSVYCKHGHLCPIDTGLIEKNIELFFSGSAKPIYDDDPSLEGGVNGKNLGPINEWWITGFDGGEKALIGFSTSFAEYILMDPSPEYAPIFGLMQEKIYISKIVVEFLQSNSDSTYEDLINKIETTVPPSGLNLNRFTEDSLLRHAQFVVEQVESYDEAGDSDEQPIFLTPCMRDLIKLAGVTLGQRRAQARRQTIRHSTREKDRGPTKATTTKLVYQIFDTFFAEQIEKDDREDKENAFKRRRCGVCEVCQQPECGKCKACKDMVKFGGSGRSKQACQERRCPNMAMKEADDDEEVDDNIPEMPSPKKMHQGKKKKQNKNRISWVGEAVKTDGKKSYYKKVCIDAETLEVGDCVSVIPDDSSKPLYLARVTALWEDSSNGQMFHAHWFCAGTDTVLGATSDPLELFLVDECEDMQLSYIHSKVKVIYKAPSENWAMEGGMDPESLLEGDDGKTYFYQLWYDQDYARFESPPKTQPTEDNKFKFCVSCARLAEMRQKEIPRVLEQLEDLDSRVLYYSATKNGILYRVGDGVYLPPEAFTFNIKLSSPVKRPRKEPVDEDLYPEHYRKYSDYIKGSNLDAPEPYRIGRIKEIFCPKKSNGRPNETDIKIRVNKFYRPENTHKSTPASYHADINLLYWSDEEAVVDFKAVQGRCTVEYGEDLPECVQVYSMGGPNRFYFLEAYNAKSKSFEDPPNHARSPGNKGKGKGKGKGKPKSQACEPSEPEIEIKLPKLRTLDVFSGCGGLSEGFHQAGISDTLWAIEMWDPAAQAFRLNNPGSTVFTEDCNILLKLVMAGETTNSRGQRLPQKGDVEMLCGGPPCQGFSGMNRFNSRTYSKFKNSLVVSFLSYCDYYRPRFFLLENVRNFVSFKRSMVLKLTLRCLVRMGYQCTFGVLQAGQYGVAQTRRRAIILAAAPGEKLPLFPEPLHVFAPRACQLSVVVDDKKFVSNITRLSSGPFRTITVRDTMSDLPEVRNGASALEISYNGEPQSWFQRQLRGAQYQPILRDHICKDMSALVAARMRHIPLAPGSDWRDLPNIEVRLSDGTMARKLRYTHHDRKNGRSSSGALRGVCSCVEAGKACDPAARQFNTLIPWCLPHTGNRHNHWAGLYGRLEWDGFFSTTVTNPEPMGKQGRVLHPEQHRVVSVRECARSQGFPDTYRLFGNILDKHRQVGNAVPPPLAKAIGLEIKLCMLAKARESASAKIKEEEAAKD
T3 sequence (Q86Y97 whole entry): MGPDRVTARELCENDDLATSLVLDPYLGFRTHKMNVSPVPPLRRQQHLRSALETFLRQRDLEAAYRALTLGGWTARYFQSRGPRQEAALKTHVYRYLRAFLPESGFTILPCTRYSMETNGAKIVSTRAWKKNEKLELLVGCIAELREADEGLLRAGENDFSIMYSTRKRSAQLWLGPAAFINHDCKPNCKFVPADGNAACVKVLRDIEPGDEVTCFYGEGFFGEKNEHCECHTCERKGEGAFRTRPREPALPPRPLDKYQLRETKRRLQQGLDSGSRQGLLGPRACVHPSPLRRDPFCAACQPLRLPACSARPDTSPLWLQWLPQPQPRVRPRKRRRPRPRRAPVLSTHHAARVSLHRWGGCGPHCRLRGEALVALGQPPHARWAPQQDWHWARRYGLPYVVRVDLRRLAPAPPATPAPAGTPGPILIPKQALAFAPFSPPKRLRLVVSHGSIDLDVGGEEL

Row | SMILES | remaining activity at 1 µM (DNMT1) | remaining activity at 10 µM (DNMT1) | remaining activity at 1 µM (PRMT8) | remaining activity at 10 µM (PRMT8) | remaining activity at 1 µM (SMYD2) | remaining activity at 10 µM (SMYD2) | remaining activity at 1 µM (PRMT5-MEP50) | remaining activity at 10 µM (PRMT5-MEP50) | remaining activity at 1 µM (DNMT3B/3L) | remaining activity at 10 µM (DNMT3B/3L) | remaining activity at 1 µM (MLL3) | remaining activity at 10 µM (MLL3) | remaining activity at 1 µM (DOT1L) | remaining activity at 10 µM (DOT1L) | remaining activity at 1 µM (SUV39H1) | remaining activity at 10 µM (SUV39H1) | remaining activity at 1 µM (PRC2-EZH1) | remaining activity at 10 µM (PRC2-EZH1) | remaining activity at 1 µM (PRDM9) | remaining activity at 10 µM (PRDM9) | also measured
1 | CC1(C)O[C@@H]2[C@H](O1)[C@@H](CSCCCCNCc1cccc(-c3ccc(Cl)cc3)c1)O[C@H]2n1cnc2c(N)ncnc21 [SGC8158N] | 94% | 99% | 97% | 97% | 105% | 104% | 101% | 91% | 104% | 103% | 99% | 100% | 97% | 95% | 98% | 78% | 92% | 93% | 101% | 98% | remaining activity at 1 µM (METTL3-14): 87%; remaining activity at 10 µM (METTL3-14): 73%; remaining activity at 1 µM (DNMT3A/3L): 100%; remaining activity at 10 µM (DNMT3A/3L): 99%; remaining activity at 1 µM (SUV39H2): 103%; remaining activity at 10 µM (SUV39H2): 78%; remaining activity at 1 µM (SUV420H2): 102%; remaining activity at 10 µM (SUV420H2): 101%
2 | Nc1ncnc2c1ncn2[C@@H]1O[C@H](CSCCCCNCc2cccc(-c3ccc(Cl)cc3)c2)[C@@H](O)[C@H]1O [SGC8158] | 98% | 91% | 92% | 45% | 101% | 84% | 15% | 2% | 100% | 101% | 105% | 105% | 58% | 13% | 94% | 90% | 106% | 100% | 106% | 96% | remaining activity at 1 µM (METTL3-14): 97%; remaining activity at 10 µM (METTL3-14): 84%; remaining activity at 1 µM (DNMT3A/3L): 100%; remaining activity at 10 µM (DNMT3A/3L): 99%; remaining activity at 1 µM (SUV39H2): 103%; remaining activity at 10 µM (SUV39H2): 102%; remaining activity at 1 µM (SUV420H2): 98%; remaining activity at 10 µM (SUV420H2): 87%
